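Assay format: 96-well plates, 48-hour exposure. The concentration for 50% growth inhibition is given as GI50. The concentration for full growth arrest is given as TGI.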
Columns and labels:
Test in all cases: NCI tumour cell line growth inhibition, 48 h; in the data active = GI50 below about 0.43 µM; inactive = the rest
T-47D breast = test system: T-47D breast
PC-3 prostate = test system: PC-3 prostate
SK-MEL-2 melanoma = test system: SK-MEL-2 melanoma
SK-MEL-28 melanoma = test system: SK-MEL-28 melanoma
SNB-19 CNS = test system: SNB-19 CNS
BT-549 breast = test system: BT-549 breast
SF-268 CNS = test system: SF-268 CNS
DU-145 prostate = test system: DU-145 prostate
LOX IMVI melanoma = test system: LOX IMVI melanoma
KM12 colon = test system: KM12 colon
TK-10 renal = test system: TK-10 renal
SNB-75 CNS = test system: SNB-75 CNS
HT29 colon = test system: HT29 colon
UO-31 renal = test system: UO-31 renal
HCT-15 colon = test system: HCT-15 colon
ACHN renal = test system: ACHN renal
SK-OV-3 ovarian = test system: SK-OV-3 ovarian
NCI/ADR-RES ovarian = test system: NCI/ADR-RES ovarian
NCI-H23 lung = test system: NCI-H23 lung
U251 CNS = test system: U251 CNS
NCI-H460 lung = test system: NCI-H460 lung
SN12C renal = test system: SN12C renal
SK-MEL-5 melanoma = test system: SK-MEL-5 melanoma
CAKI-1 renal = test system: CAKI-1 renal
SW-620 colon = test system: SW-620 colon
HOP-62 NSCLC = test system: HOP-62 NSCLC
COLO 205 colon = test system: COLO 205 colon
OVCAR-8 ovarian = test system: OVCAR-8 ovarian
MDA-MB-231 breast = test system: MDA-MB-231 breast
HCT-116 colon = test system: HCT-116 colon
MDA-MB-435 = test system: MDA-MB-435
SR leukemia = test system: SR leukemia
786-0 renal = test system: 786-0 renal
M14 melanoma = test system: M14 melanoma
MALME-3M melanoma = test system: MALME-3M melanoma
SF-539 CNS = test system: SF-539 CNS
A498 renal = test system: A498 renal
OVCAR-4 ovarian = test system: OVCAR-4 ovarian
HCC-2998 colon = test system: HCC-2998 colon
OVCAR-3 ovarian = test system: OVCAR-3 ovarian
RPMI-8226 leukemia = test system: RPMI-8226 leukemia
UACC-257 melanoma = test system: UACC-257 melanoma
UACC-62 melanoma = test system: UACC-62 melanoma
OVCAR-5 ovarian = test system: OVCAR-5 ovarian
HOP-92 NSCLC = test system: HOP-92 NSCLC
MCF7 breast = test system: MCF7 breast
NCI-H226 lung = test system: NCI-H226 lung
K-562 leukemia = test system: K-562 leukemia
MOLT-4 leukemia = test system: MOLT-4 leukemia
SF-295 CNS = test system: SF-295 CNS
EKVX NSCLC = test system: EKVX NSCLC
HS 578T breast = test system: HS 578T breast
CCRF-CEM leukemia = test system: CCRF-CEM leukemia
NCI-H522 lung = test system: NCI-H522 lung
IGROV1 ovarian = test system: IGROV1 ovarian
HL-60(TB) leukemia = test system: HL-60(TB) leukemia
A549 NSCLC = test system: A549 NSCLC
RXF 393 renal = test system: RXF 393 renal

O=C1CC(c2ccccc2)Cc2nc3ccc(Br)cc3cc21 (configuration not stated)
> 20.3 µM: TGI (NCI-H226 lung)
1.14 µM: TGI (OVCAR-3 ovarian)
inactive: GI50 (T-47D breast) 5.68 µM | GI50 (SK-MEL-28 melanoma) 1.34 µM | GI50 (SNB-19 CNS) 0.495 µM | GI50 (BT-549 breast) 0.589 µM | GI50 (SF-268 CNS) 4.65 µM | GI50 (LOX IMVI melanoma) 0.746 µM | GI50 (TK-10 renal) 24.2 µM | GI50 (UO-31 renal) 0.689 µM | GI50 (HCT-15 colon) 0.476 µM | GI50 (ACHN renal) 0.498 µM | GI50 (SK-OV-3 ovarian) 0.694 µM | GI50 (NCI-H23 lung) 0.575 µM | GI50 (U251 CNS) 0.514 µM | GI50 (SN12C renal) 0.577 µM | GI50 (CAKI-1 renal) 0.459 µM | GI50 (HOP-62 NSCLC) 0.526 µM | GI50 (MDA-MB-231 breast) 0.65 µM | GI50 (786-0 renal) 0.667 µM | GI50 (OVCAR-4 ovarian) 6.93 µM | GI50 (HCC-2998 colon) 1.57 µM | GI50 (RPMI-8226 leukemia) 2.92 µM | GI50 (UACC-257 melanoma) 23.6 µM | GI50 (OVCAR-5 ovarian) 0.757 µM | GI50 (HOP-92 NSCLC) 0.45 µM | GI50 (MCF7 breast) 2.75 µM | GI50 (NCI-H226 lung) 0.908 µM | GI50 (EKVX NSCLC) 0.78 µM | GI50 (IGROV1 ovarian) 0.428 µM
> 36.8 µM: TGI (SR leukemia)
> 91.8 µM: TGI (MALME-3M melanoma)
1.8 µM: TGI (COLO 205 colon)
2.22 µM: TGI (SK-MEL-5 melanoma)
12.4 µM: TGI (M14 melanoma)
0.672 µM: TGI (HL-60(TB) leukemia)
20.3 µM: TGI (NCI-H522 lung)
0.126 µM: TGI (MDA-MB-435)
15.9 µM: TGI (BT-549 breast)
28.3 µM: TGI (SF-295 CNS)
> 100 µM: TGI (T-47D breast) | TGI (PC-3 prostate) | TGI (SK-MEL-2 melanoma) | TGI (SK-MEL-28 melanoma) | TGI (SNB-19 CNS) | TGI (SF-268 CNS) | TGI (DU-145 prostate) | TGI (TK-10 renal) | TGI (HT29 colon) | TGI (UO-31 renal) | TGI (HCT-15 colon) | TGI (ACHN renal) | TGI (SK-OV-3 ovarian) | TGI (NCI-H23 lung) | TGI (U251 CNS) | TGI (SN12C renal) | TGI (CAKI-1 renal) | TGI (SW-620 colon) | TGI (HOP-62 NSCLC) | TGI (OVCAR-8 ovarian) | TGI (HCT-116 colon) | TGI (786-0 renal) | TGI (OVCAR-4 ovarian) | TGI (RPMI-8226 leukemia) | TGI (UACC-257 melanoma) | TGI (UACC-62 melanoma) | TGI (OVCAR-5 ovarian) | TGI (MCF7 breast) | TGI (K-562 leukemia) | TGI (MOLT-4 leukemia) | TGI (EKVX NSCLC) | TGI (CCRF-CEM leukemia) | TGI (IGROV1 ovarian) | TGI (A549 NSCLC)
> 37.7 µM: TGI (KM12 colon)
16.8 µM: TGI (HCC-2998 colon)
13.7 µM: TGI (NCI-H460 lung)
96.3 µM: TGI (MDA-MB-231 breast)
0.693 µM: TGI (SF-539 CNS)
active: GI50 (PC-3 prostate) 0.296 µM | GI50 (SK-MEL-2 melanoma) 0.283 µM | GI50 (DU-145 prostate) 0.209 µM | GI50 (KM12 colon) 0.368 µM | GI50 (SNB-75 CNS) 0.187 µM | GI50 (HT29 colon) 0.244 µM | GI50 (NCI/ADR-RES ovarian) 0.0748 µM | GI50 (NCI-H460 lung) 0.339 µM | GI50 (SK-MEL-5 melanoma) 0.342 µM | GI50 (SW-620 colon) 0.362 µM | GI50 (COLO 205 colon) 0.281 µM | GI50 (OVCAR-8 ovarian) 0.4 µM | GI50 (HCT-116 colon) 0.0509 µM | GI50 (MDA-MB-435) 0.0328 µM | GI50 (SR leukemia) 0.0855 µM | GI50 (M14 melanoma) 0.0486 µM | GI50 (MALME-3M melanoma) 0.076 µM | GI50 (SF-539 CNS) 0.226 µM | GI50 (A498 renal) 0.0377 µM | GI50 (OVCAR-3 ovarian) 0.304 µM | GI50 (UACC-62 melanoma) 0.26 µM | GI50 (K-562 leukemia) 0.162 µM | GI50 (MOLT-4 leukemia) 0.0639 µM | GI50 (SF-295 CNS) 0.265 µM | GI50 (HS 578T breast) 0.408 µM | GI50 (CCRF-CEM leukemia) 0.0492 µM | GI50 (NCI-H522 lung) 0.204 µM | GI50 (HL-60(TB) leukemia) 0.235 µM | GI50 (A549 NSCLC) 0.378 µM
9.03 µM: TGI (NCI/ADR-RES ovarian)
> 94.5 µM: TGI (HS 578T breast)
0.487 µM: TGI (A498 renal)
> 59.8 µM: TGI (LOX IMVI melanoma)
46.1 µM: TGI (HOP-92 NSCLC)
> 90.1 µM: TGI (SNB-75 CNS)

C=C(C)[C@@H]1CCC2=C[C@H](C/C(C)=C\C3=CC(C)=C(O3)[C@H]1O)OC2=O
> 100 µM: TGI (T-47D breast) | TGI (PC-3 prostate) | TGI (SK-MEL-2 melanoma) | TGI (SK-MEL-28 melanoma) | TGI (SNB-19 CNS) | TGI (BT-549 breast) | TGI (SF-268 CNS) | TGI (DU-145 prostate) | TGI (LOX IMVI melanoma) | TGI (KM12 colon) | TGI (TK-10 renal) | TGI (SNB-75 CNS) | TGI (UO-31 renal) | TGI (HCT-15 colon) | TGI (ACHN renal) | TGI (NCI/ADR-RES ovarian) | TGI (RXF 393 renal) | TGI (U251 CNS) | TGI (NCI-H460 lung) | TGI (SN12C renal) | TGI (SK-MEL-5 melanoma) | TGI (CAKI-1 renal) | TGI (SW-620 colon) | TGI (COLO 205 colon) | TGI (OVCAR-8 ovarian) | TGI (MDA-MB-435) | TGI (SR leukemia) | TGI (786-0 renal) | TGI (M14 melanoma) | TGI (MALME-3M melanoma) | TGI (SF-539 CNS) | TGI (A498 renal) | TGI (OVCAR-4 ovarian) | TGI (HCC-2998 colon) | TGI (OVCAR-3 ovarian) | TGI (RPMI-8226 leukemia) | TGI (UACC-257 melanoma) | TGI (UACC-62 melanoma) | TGI (OVCAR-5 ovarian) | TGI (HOP-92 NSCLC) | TGI (MCF7 breast) | TGI (NCI-H226 lung) | TGI (K-562 leukemia) | TGI (MOLT-4 leukemia) | TGI (SF-295 CNS) | TGI (EKVX NSCLC) | TGI (HS 578T breast) | TGI (CCRF-CEM leukemia) | TGI (NCI-H522 lung) | TGI (IGROV1 ovarian) | TGI (HL-60(TB) leukemia) | TGI (A549 NSCLC)
98.8 µM: TGI (MDA-MB-231 breast)
